From patent US20240199546A1, “INHIBITORS OF SOLUTE CARRIER FAMILY 6A MEMBER 19 (SLC6A19) AND METHODS OF USE THEREOF” (Maze Therapeutics, Inc., priority 2022, published 2024) come the findings set out here.

The target in test [1] is T1, human SLC6A19 and TMEM27 (Homo sapiens, UniProt Q695T7).
T1 construct: expressed in transfected cells
T1 sequence (Q695T7 1-634): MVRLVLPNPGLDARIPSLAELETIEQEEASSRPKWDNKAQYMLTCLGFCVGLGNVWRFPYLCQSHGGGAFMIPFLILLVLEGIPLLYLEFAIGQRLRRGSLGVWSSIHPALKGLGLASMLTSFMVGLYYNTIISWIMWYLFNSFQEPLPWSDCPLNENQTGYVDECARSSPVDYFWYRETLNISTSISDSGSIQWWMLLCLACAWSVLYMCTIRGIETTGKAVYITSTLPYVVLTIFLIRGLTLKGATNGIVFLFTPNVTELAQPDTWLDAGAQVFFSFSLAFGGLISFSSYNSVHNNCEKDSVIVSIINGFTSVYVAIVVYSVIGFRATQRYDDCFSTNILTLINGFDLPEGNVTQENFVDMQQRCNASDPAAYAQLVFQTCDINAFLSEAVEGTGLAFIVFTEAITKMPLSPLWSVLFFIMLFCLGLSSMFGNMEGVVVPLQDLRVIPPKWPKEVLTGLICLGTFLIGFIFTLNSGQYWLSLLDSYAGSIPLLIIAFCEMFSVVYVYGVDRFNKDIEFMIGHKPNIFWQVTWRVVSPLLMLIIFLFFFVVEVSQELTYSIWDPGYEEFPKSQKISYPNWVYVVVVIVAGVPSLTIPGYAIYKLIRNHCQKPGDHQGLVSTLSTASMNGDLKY
T1 sequence (Q9HBJ8 15-222 partner): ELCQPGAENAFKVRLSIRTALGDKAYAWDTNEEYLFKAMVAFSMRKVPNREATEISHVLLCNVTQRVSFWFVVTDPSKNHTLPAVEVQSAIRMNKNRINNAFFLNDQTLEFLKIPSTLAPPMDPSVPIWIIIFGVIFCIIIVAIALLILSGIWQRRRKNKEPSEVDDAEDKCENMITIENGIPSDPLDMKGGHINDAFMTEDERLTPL
The experiment in a line: Radiolabelled (3H) leucine uptake in CHO cells with doxycycline-inducible expression of human SLC6A19 and TMEM27 (Example B-1). The conditions noted are these: CHO cells with doxycycline-inducible expression of human SLC6A19 and TMEM27, read-out: SLC6A19_Radioligand Uptake Assay IC50. It counts as cell-based. A digest of the protocol: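 CHO cells were induced with doxycycline for 18 h at 37 °C, washed in HBSS, then exposed to compounds for 1 h: 8-point, 3-fold dilutions in duplicate, 0.5% DMSO final. Uptake measured by scintillation counting after 2 h shaking. Activity normalized with positive control as 0% and DMSO as 100%.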

In test [2] the target is T1, human SLC6A19 and TMEM27. Kind of test: 13C6,15N-isoleucine uptake in CHO cells with doxycycline-inducible expression of human SLC6A19 and TMEM27, RapidFire mass spectrometry (Example B-2). Type of test: cell-based. The conditions noted are these: read-out: SLC6A19_RapidFire Uptake Assay IC50. The method, boiled down: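 CHO cells induced overnight with doxycycline to express human SLC6A19 plus TMEM27; 20 min preincubation with compound (10-point 2-fold series, duplicate) at 37 °C in HEPES buffer pH 7.2, then 20 min with 13C6,15N-isoleucine. Intracellular label quantified by RapidFire MS against 13C-leucine standard; positive control defined 100% inhibition.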

As to `CC1(C(=O)NCc2cc3cc(Cl)c(OCc4ccon4)cc3[nH]2)CCC1` [Compound 504, N-((5-chloro-6-(isoxazol-3-ylmethoxy)-1H-indol-2-yl)methyl)-1-methylcyclobutane-1-carboxamide], the IC50 (usually the midpoint of a concentration-inhibition curve) at human SLC6A19 and TMEM27 [1] came out at 391 nM; on human SLC6A19 and TMEM27 [2], 406 nM.

In the case of `CC1(C(=O)NCc2cc3cc(F)c(NCc4cscn4)cc3[nH]2)CC1` [Compound 523, N-((5-fluoro-6-((thiazol-4-ylmethyl)amino)-1H-indol-2-yl)methyl)-1-methylcyclopropane-1-carboxamide], the IC50 turned out to be 208 nM at human SLC6A19 and TMEM27 [1]; 239 nM on human SLC6A19 and TMEM27 [2].

As to `CC1(C(=O)NCc2cc3cc(F)c(NCc4ccon4)cc3[nH]2)CC1` [Compound 524, N-((5-fluoro-6-((isoxazol-3-ylmethyl)amino)-1H-indol-2-yl)methyl)-1-methylcyclopropane-1-carboxamide], the IC50 was 400 nM on human SLC6A19 and TMEM27 [1]; 570 nM on human SLC6A19 and TMEM27 [2].

For `Cc1cc2cc(CNC(=O)N3CCC3)[nH]c2cc1OCc1cscn1` [Compound 528, N-((5-methyl-6-(thiazol-4-ylmethoxy)-1H-indol-2-yl)methyl)azetidine-1-carboxamide], the IC50 at human SLC6A19 and TMEM27 [1] stood at 278 nM; at human SLC6A19 and TMEM27 [2], 292 nM.

Take `CCC(=O)NCc1cc2cc(C)c(OCc3cscn3)cc2[nH]1` [Compound 529, N-((5-methyl-6-(thiazol-4-ylmethoxy)-1H-indol-2-yl)methyl)propionamide]: the 50% inhibitory concentration (IC50) turned out to be 192 nM on human SLC6A19 and TMEM27 [1]; 154 nM at human SLC6A19 and TMEM27 [2].

Take `CCC(=O)NCc1cc2cc(C)c(OCc3ccon3)cc2[nH]1` [Compound 530, N-((6-(isoxazol-3-ylmethoxy)-5-methyl-1H-indol-2-yl)methyl)propionamide]: the half-inhibitory concentration (IC50) turned out to be 171 nM at human SLC6A19 and TMEM27 [1]; 208 nM on human SLC6A19 and TMEM27 [2].

As for `Cc1cc2cc(CNC(=O)N3CCCC3)[nH]c2cc1OCc1cscn1` [Compound 531, N-((5-methyl-6-(thiazol-4-ylmethoxy)-1H-indol-2-yl)methyl)pyrrolidine-1-carboxamide], the IC50 on human SLC6A19 and TMEM27 [1] worked out at 295 nM; at human SLC6A19 and TMEM27 [2] it was 164 nM.

Regarding `Cc1cc2cc(CNC(=O)N3CCC3)[nH]c2cc1OCc1ccon1` [Compound 532, N-((6-(isoxazol-3-ylmethoxy)-5-methyl-1H-indol-2-yl)methyl)azetidine-1-carboxamide], the half-inhibitory concentration (IC50) on human SLC6A19 and TMEM27 [1] is 509 nM; at human SLC6A19 and TMEM27 [2], 632 nM.

With `Cc1cc2cc(CNC(=O)N3CCCC3)[nH]c2cc1OCc1ccon1` [Compound 533, N-((6-(isoxazol-3-ylmethoxy)-5-methyl-1H-indol-2-yl)methyl)pyrrolidine-1-carboxamide], the IC50 at human SLC6A19 and TMEM27 [1] was determined as 332 nM; at human SLC6A19 and TMEM27 [2], 330 nM.

On to `Cc1nc(COc2cc3[nH]c(CNC(=O)C4(C)CC4)cc3cc2F)co1` [Compound 547, N-((5-fluoro-6-((2-methyloxazol-4-yl)methoxy)-1H-indol-2-yl)methyl)-1-methylcyclopropane-1-carboxamide], for which the half-maximal inhibitory concentration (IC50) at human SLC6A19 and TMEM27 [1] is 363 nM; at human SLC6A19 and TMEM27 [2], 314 nM.

For `CCC(=O)NCc1cc2cc(F)c(OCc3cc(C)no3)cc2[nH]1` [Compound 548, N-((5-fluoro-6-((3-methylisoxazol-5-yl)methoxy)-1H-indol-2-yl)methyl)propionamide], the IC50 at human SLC6A19 and TMEM27 [1] was 100 nM; on human SLC6A19 and TMEM27 [2] it was 54.5 nM.

On to `Cc1nc(COc2cc3[nH]c(CNC(=O)C4CC4)cc3cc2F)co1` [Compound 549, N-((5-fluoro-6-((2-methyloxazol-4-yl)methoxy)-1H-indol-2-yl)methyl)cyclopropanecarboxamide], for which the concentration for half-maximal inhibition (IC50) came out at 426 nM at human SLC6A19 and TMEM27 [1]; 833 nM at human SLC6A19 and TMEM27 [2].

For `CCC(=O)NCc1cc2cc(F)c(OCc3coc(C)n3)cc2[nH]1` [Compound 550, N-((5-fluoro-6-((2-methyloxazol-4-yl)methoxy)-1H-indol-2-yl)methyl)propionamide], the IC50 was found to be 552 nM on human SLC6A19 and TMEM27 [1]; 1040 nM at human SLC6A19 and TMEM27 [2].

Regarding `Cc1nc(COc2cc3[nH]c(CNC(=O)C(C)C)cc3cc2F)co1` [Compound 551, N-((5-fluoro-6-((2-methyloxazol-4-yl)methoxy)-1H-indol-2-yl)methyl)isobutyramide], the IC50 was found to be 954 nM on human SLC6A19 and TMEM27 [1]; 1760 nM at human SLC6A19 and TMEM27 [2].

With `CC1(C(=O)NCc2cc3cc(Cl)c(CCn4cccn4)cc3[nH]2)CC1` [Compound 590, N-((6-(2-(1H-pyrazol-1-yl)ethyl)-5-chloro-1H-indol-2-yl)methyl)-1-methylcyclopropane-1-carboxamide], the IC50 at human SLC6A19 and TMEM27 [1] was determined as 145 nM; at human SLC6A19 and TMEM27 [2], 51.8 nM.

On to `CC1(C(=O)NCc2cc3cc(F)c(CCc4ccon4)cc3[nH]2)CC1` [Compound 592, N-((5-fluoro-6-(2-(isoxazol-3-yl)ethyl)-1H-indol-2-yl)methyl)-1-methylcyclopropane-1-carboxamide], for which the IC50 is 163 nM at human SLC6A19 and TMEM27 [1]; 93.1 nM on human SLC6A19 and TMEM27 [2].

As for `O=C(NCc1cc2cc(F)c(CCc3ccon3)cc2[nH]1)N1CCC1` [Compound 602, N-((5-fluoro-6-(2-(isoxazol-3-yl)ethyl)-1H-indol-2-yl)methyl)azetidine-1-carboxamide], the IC50 on human SLC6A19 and TMEM27 [1] is 820 nM; at human SLC6A19 and TMEM27 [2], 609 nM.

Turning to `O=C(NCc1cc2cc(F)c(CCc3ccon3)cc2[nH]1)N1CCCC1` [Compound 603, N-((5-fluoro-6-(2-(isoxazol-3-yl)ethyl)-1H-indol-2-yl)methyl)pyrrolidine-1-carboxamide], the IC50 at human SLC6A19 and TMEM27 [1] is 345 nM; on human SLC6A19 and TMEM27 [2] it was 263 nM.

For the compound `CC1(C(=O)NCc2cc3cc(Cl)c(CNc4ccon4)cc3[nH]2)CC1` [Compound 608, N-((5-chloro-6-((isoxazol-3-ylamino)methyl)-1H-indol-2-yl)methyl)-1-methylcyclopropane-1-carboxamide], the IC50 on human SLC6A19 and TMEM27 [1] stood at 304 nM; on human SLC6A19 and TMEM27 [2], 457 nM.

On to `COC(=O)NCc1cc2cc(Cl)c(OCc3cscn3)cc2[nH]1` [Compound 624, methyl ((5-chloro-6-(thiazol-4-ylmethoxy)-1H-indol-2-yl)methyl)carbamate], for which the IC50 is 104 nM on human SLC6A19 and TMEM27 [1]; 30.9 nM on human SLC6A19 and TMEM27 [2].

Turning to `CN(Cc1cn[nH]c1)C(=O)NCc1cc2ccc(OCc3ccon3)cc2[nH]1` [Compound 627, 1-((1H-pyrazol-4-yl)methyl)-3-((6-(isoxazol-3-ylmethoxy)-1H-indol-2-yl)methyl)-1-methylurea], the IC50 at human SLC6A19 and TMEM27 [1] is greater than 8730 nM; on human SLC6A19 and TMEM27 [2], 12100 nM.

In the case of `CN(Cc1cn[nH]c1)C(=O)NCc1cc2ccc(OCc3cscn3)cc2[nH]1` [Compound 628, 1-((1H-pyrazol-4-yl)methyl)-1-methyl-3-((6-(thiazol-4-ylmethoxy)-1H-indol-2-yl)methyl)urea], the half-maximal inhibitory concentration (IC50) at human SLC6A19 and TMEM27 [1] worked out at 2670 nM; on human SLC6A19 and TMEM27 [2], 3020 nM.

For the compound `COc1cc2cc(CNC(=O)C3(C)CC3)[nH]c2cc1CCc1ccon1` [Compound 630, N-((6-(2-(isoxazol-3-yl)ethyl)-5-methoxy-1H-indol-2-yl)methyl)-1-methylcyclopropane-1-carboxamide], the concentration for half-maximal inhibition (IC50) at human SLC6A19 and TMEM27 [1] worked out at 156 nM; at human SLC6A19 and TMEM27 [2] it was 113 nM.

Turning to `COc1cc2cc(CNC(=O)C3(C)CC3)[nH]c2cc1CCc1cscn1` [Compound 631, N-((5-methoxy-6-(2-(thiazol-4-yl)ethyl)-1H-indol-2-yl)methyl)-1-methylcyclopropane-1-carboxamide], the concentration for half-maximal inhibition (IC50) on human SLC6A19 and TMEM27 [1] was 210 nM; at human SLC6A19 and TMEM27 [2], 149 nM.

As to `CC1(C(=O)NCc2cc3cc(Cl)c(OCc4cn5ccccc5n4)cc3[nH]2)CC1` [Compound 632, N-((5-chloro-6-(imidazo[1,2-a]pyridin-2-ylmethoxy)-1H-indol-2-yl)methyl)-1-methylcyclopropane-1-carboxamide], the IC50 at human SLC6A19 and TMEM27 [1] is 1470 nM; at human SLC6A19 and TMEM27 [2] it was greater than 2050 nM.

As for `CC1(C(=O)NCc2cc3cc(Cl)c(OCC4CCC4)cc3[nH]2)CC1` [Compound 634, N-((5-chloro-6-(cyclobutylmethoxy)-1H-indol-2-y1)methyl)-1-methylcyclopropane-1-carboxamide], the concentration for half-maximal inhibition (IC50) came to 404 nM at human SLC6A19 and TMEM27 [1]; 168 nM at human SLC6A19 and TMEM27 [2].

On to `CC1(C(=O)NCc2cc3cc(C(F)F)c(OCc4cscn4)cc3[nH]2)CC1` [Compound 645, N-((5-(difluoromethyl)-6-(thiazol-4-ylmethoxy)-1H-indol-2-yl)methyl)-1-methylcyclopropane-1-carboxamide], for which the IC50 at human SLC6A19 and TMEM27 [1] worked out at 955 nM; at human SLC6A19 and TMEM27 [2], 524 nM.
